Reference: article PMC7736868, “Fluorescent ligands for dopamine D2/D3 receptors” (Scientific Reports, 2020)

What was measured:
secNluc-D3R [1] = target: T1, secNluc-D3R (UniProt P35462+Q9GV45, A31E/A60N/A81I/F95D/I117V/K70R/L54V/L99Q/M102K/N193R/P142E/Q151K/Q38R/Q45L/V71I/Y165I); assay: Live-cell NanoBRET saturation binding, HEK293T cells
Method: Figure 5 NanoBRET saturation curves for the fluorescent ligands 10a-c. Saturation binding experiments were performed with live HEK293T cells expressing secNluc-D3R and the fluorescent ligands 10a, 10b and 10c, comprising a trifluorethyl-rhodamine derivative, a Cy3B and an Alexa488 fluorophore, respectively. […] Data points show mean ± SEM of one representative out of n = 5 (for 10a) or n = 4 (for 10b,c) experiments, with each condition carried out in triplicate. The netBRET signal was calculated as the difference between total BRET and the signal obtained in the absence of a fluorescent ligand.
For whole cell NanoBRET saturation assays, HEK293T cells were transfected with secNluc-D3R employing Mirus TransIT-293 (3:1 reagent to DNA ratio). After 24 h at 37 °C, 5% CO2, cells were detached using Versene and transferred to white, F-bottom 384-well plates at a density of 2,500 cells/well and incubated for another 24 h at 37 °C, 5% CO2. Cells were washed with PBS and incubated for 30 min at 37 °C with 5% FBS in DMEM without phenol red, before the fluorescent ligands (5 µL, diluted into DMEM without phenol red with 5% FBS from a 1 mM DMSO-stock) were added. […] After 1 h incubation with the ligands at 37 °C, furimazine (Promega, final dilution 1:500 to 1:2,500) was added, followed by a 5 min incubation at room temperature in the dark. BRET was measured as the ratio of acceptor fluorescence and donor luminescence employing a CLARIOstar microplate reader equipped with 475/30 nm and 535/30 or 580/30 emission filters, respectively. Total, non-specific and specific binding were analyzed employing the algorithms for one-site saturation binding implemented in PRISM6.0 or 8.0.

secNluc-D3R [2] = target: T1, secNluc-D3R; assay: Membrane-based NanoBRET saturation binding; settings: membranes from HEK293T cells expressing secNluc-D3R; KD ± SEM
Method: . After addition of furimazine (1:5,000, final volume 35 µL), and 5 min incubation at room temperature in the dark, BRET readings were obtained using a CLARIOstar plate reader equipped with a 475/30 nm donor together with a 535/30 nm (for 10a) or 620/30 nm (for 10b) acceptor emission filter. […]. Kinetic assays were monitored at room temperature and minimal possible cycle time of the CLARIOstar was used for each measurement. Data was fitted to one phase association and dissociation equations in PRISM6.0 to determine the kinetic constants. In competition binding experiments, membranes were incubated with serial dilutions of unlabeled ligands and the fluorescent ligand 10a (10 or 100 nM) for 90 min at 37 °C. Addition of furimazine (1:5,000) and BRET measurements were carried out as described above. Data analysis was performed using the one site—fit Ki equation in PRISM6.0 to determine the inhibition constants (Ki) of the unlabeled ligands.
Supplementary Fig. 4. NanoBRET saturation curves obtained with ligands 10a,b and membranes from HEK293T expressing secNluc- D3R. […]
calculated as the difference between total and non- specific binding . BRET was measured after 90 min incubation at 37 °C and represents mean ± SD of an individual representative out of 3 – 4 independent experiments, with each condition in triplicate. […]

[3] = read-out: KD NanoBRET saturation; live HEK293T cells expressing secNluc-D3R; KD ± SEM

T1 sequence (Q9GV45+P35462 fused with the stated changes): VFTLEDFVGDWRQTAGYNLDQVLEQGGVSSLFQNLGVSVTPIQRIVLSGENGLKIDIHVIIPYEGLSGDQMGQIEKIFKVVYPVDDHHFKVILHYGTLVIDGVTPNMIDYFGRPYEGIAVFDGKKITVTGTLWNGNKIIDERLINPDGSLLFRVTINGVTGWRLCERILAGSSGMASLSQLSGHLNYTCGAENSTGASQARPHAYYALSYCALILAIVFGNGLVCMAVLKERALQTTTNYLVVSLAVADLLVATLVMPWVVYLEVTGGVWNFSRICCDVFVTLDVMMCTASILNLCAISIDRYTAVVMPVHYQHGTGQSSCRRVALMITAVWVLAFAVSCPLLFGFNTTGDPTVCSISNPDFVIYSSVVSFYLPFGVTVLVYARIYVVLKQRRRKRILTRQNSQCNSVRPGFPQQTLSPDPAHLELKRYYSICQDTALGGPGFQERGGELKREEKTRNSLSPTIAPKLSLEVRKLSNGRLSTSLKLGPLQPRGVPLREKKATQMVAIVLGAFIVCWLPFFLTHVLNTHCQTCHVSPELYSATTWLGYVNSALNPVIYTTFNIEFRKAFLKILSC

SMILES | Kd (secNluc-D3R [1]; live HEK293T cells expressing secNluc-D3R; KD ± SEM; read-out: KD NanoBRET saturation) [nM] | Kd (secNluc-D3R [2]) [nM] | Kd (secNluc-D3R [1]; [3]) [nM]
CCCN(CCCCc1cn(-c2ccc(CNC(=O)c3ccc(-c4c5ccc(=NCC(F)(F)F)cc-5oc5cc(NCC(F)(F)F)ccc45)c(C(=O)O)c3)cc2)nn1)C1Cc2ccccc2C1 [10a] | 0.72 ± 0.07 | 0.9 ± 0.14 | –
CCCN(CCCCc1cn(-c2ccc(C(=O)NCCCNC(=O)Cc3ccc4c(c3)C(C)(C)C3=C5C=C6C7=[N+](CCC6OC5CCN34)c3ccc(S(=O)(=O)[O-])cc3C7(C)C)cc2)nn1)C1Cc2ccccc2C1 (centres unmarked) [10b] | – | 11.3 ± 1.6 | 12.1 ± 1.7
CCCN(CCCCc1cn(-c2ccc(C(=O)NCCCNC(=O)c3ccc(-c4c5ccc(=N)c(S(=O)(=O)O)c-5oc5c(S(=O)(=O)O)c(N)ccc45)c(C(=O)O)c3)cc2)nn1)C1Cc2ccccc2C1 [10c] | – | – | 0.72 ± 0.08
